Experimental data taken from ChEMBL document CHEMBL3272271, “Folate antagonists. 13. 2,4-Diamino-6-](alpha,alpha,alpha-trifluoro-m-tolyl)thio]quinazoline and related 2,4-diamino-6-[(phenyl- and naphthyl)thio]quinazolines, a unique class of antimetabolites with extraordinary antimalarial and antibacterial effects” (J Med Chem, 1978).
Values after ≈ are worked out from the molar mass of the structure shown. Active and inactive are the calls of the source. The rule behind the calls is not given here.

Experiments:
[1] = system: Enterococcus faecalis; test: Antibacterial activity against Streptococcus faecalis MGH-2 by gradient plate test; format: functional
[2] = system: Staphylococcus aureus; test: Antibacterial activity against Staphylococcus aureus UC-96 by gradient plate test; format: functional
[3] = system: Staphylococcus aureus; test: Antibacterial activity against drug-resistant Staphylococcus aureus S18713 by gradient plate test; format: functional
[4] = system: Pseudomonas aeruginosa; test: Antibacterial activity against Pseudomonas aeruginosa 28 by gradient plate test; format: functional
[5] = system: Escherichia coli; test: Antibacterial activity against Escherichia coli Vogel by gradient plate test; format: functional
[6] = system: Shigella sonnei; test: Antibacterial activity against Shigella sonnei C-10 by gradient plate test; format: functional
[7] = system: Plasmodium berghei; test: Antimalarial activity against Plasmodium berghei infected in mouse assessed as increase in mean survival days of host at 20 mg/kg, sc administered 72 hrs after infection relative to control; format: functional; details: route subcutaneous
[8] = system: Plasmodium berghei; test: Antimalarial activity against Plasmodium berghei infected in mouse assessed as increase in mean survival days of host at 10 mg/kg, sc administered 72 hrs after infection relative to control; format: functional; details: route subcutaneous
[9] = system: Plasmodium berghei; test: Antimalarial activity against Plasmodium berghei infected in mouse assessed as increase in mean survival days of host at 5 mg/kg, sc administered 72 hrs after infection relative to control; format: functional; details: route subcutaneous
[10] = system: Plasmodium berghei; test: Antimalarial activity against Plasmodium berghei infected in mouse assessed as increase in mean survival days of host at 2.5 mg/kg, sc administered 72 hrs after infection relative to control; format: functional; details: route subcutaneous
[11] = system: Plasmodium berghei; test: Antimalarial activity against Plasmodium berghei infected in mouse assessed as increase in mean survival days of host at 1.25 mg/kg, sc administered 72 hrs after infection relative to control; format: functional; details: route subcutaneous
[12] = system: Plasmodium berghei; test: Antimalarial activity against Plasmodium berghei infected in mouse assessed as disease cure from parasite infection at 640 mg/kg, sc administered 72 hrs after infection; format: functional, organism-based; design: dose 640 mg/kg
[13] = system: Plasmodium berghei; test: Antimalarial activity against Plasmodium berghei infected in mouse assessed as disease cure from parasite infection at 320 mg/kg, sc administered 72 hrs after infection; format: functional, organism-based; design: dose 320 mg/kg
[14] = system: Plasmodium berghei; test: Antimalarial activity against Plasmodium berghei infected in mouse assessed as disease cure from parasite infection at 160 mg/kg, sc administered 72 hrs after infection; format: functional, organism-based; design: dose 160 mg/kg
[15] = system: Plasmodium berghei; test: Antimalarial activity against Plasmodium berghei infected in mouse assessed as disease cure from parasite infection at 80 mg/kg, sc administered 72 hrs after infection; format: functional, organism-based; design: dose 80 mg/kg
[16] = system: Plasmodium berghei; test: Antimalarial activity against Plasmodium berghei infected in mouse assessed as disease cure from parasite infection at 40 mg/kg, sc administered 72 hrs after infection; format: functional, organism-based; design: dose 40 mg/kg
[17] = system: Plasmodium berghei; test: Antimalarial activity against Plasmodium berghei infected in mouse assessed as disease cure from parasite infection at 20 mg/kg, sc administered 72 hrs after infection; format: functional, organism-based; design: dose 20 mg/kg
[18] = system: Plasmodium berghei; test: Antimalarial activity against trophozoite-induced Plasmodium berghei infected in mouse assessed as daily dose required to suppression of 90% parasite infection administered with diet for 6 days; format: functional
[19] = system: Plasmodium berghei; test: Ratio of quinine hydrochloride SD90 to compound SD90 for trophozoite-induced Plasmodium berghei infected in mouse assessed as daily dose required to suppression of 90% parasite infection administered with diet for 6 days; format: functional
[20] = system: Mycobacterium tuberculosis; test: Antibacterial activity against Mycobacterium tuberculosis H37Ra by gradient plate test; format: functional
[21] = system: Plasmodium berghei; test: Antimalarial activity against Plasmodium berghei infected in mouse assessed as increase in mean survival days of host at 40 mg/kg, sc administered 72 hrs after infection relative to control; format: functional; details: route subcutaneous
[22] = system: Plasmodium berghei; test: Antimalarial activity against Plasmodium berghei infected in mouse assessed as increase in mean survival days of host at 320 mg/kg, sc administered 72 hrs after infection relative to control; format: functional; details: route subcutaneous
[23] = system: Plasmodium berghei; test: Antimalarial activity against Plasmodium berghei infected in mouse assessed as increase in mean survival days of host at 160 mg/kg, sc administered 72 hrs after infection relative to control; format: functional; details: route subcutaneous
[24] = system: Plasmodium berghei; test: Antimalarial activity against Plasmodium berghei infected in mouse assessed as increase in mean survival days of host at 80 mg/kg, sc administered 72 hrs after infection relative to control; format: functional; details: route subcutaneous
[25] = system: Plasmodium gallinaceum; test: Antimalarial activity against trophozoite-induced Plasmodium gallinaceum infected in white leghorn chicken assessed as increase in mean survival days of host at 320 mg/kg, sc administered 72 hrs after infection relative to control; format: functional; details: route subcutaneous
[26] = system: Plasmodium gallinaceum; test: Antimalarial activity against trophozoite-induced Plasmodium gallinaceum infected in white leghorn chicken assessed as increase in mean survival days of host at 160 mg/kg, sc administered 72 hrs after infection relative to control; format: functional; details: route subcutaneous
[27] = system: Plasmodium gallinaceum; test: Antimalarial activity against trophozoite-induced Plasmodium gallinaceum infected in white leghorn chicken assessed as increase in mean survival days of host at 80 mg/kg, sc administered 72 hrs after infection relative to control; format: functional; details: route subcutaneous
[28] = system: Plasmodium gallinaceum; test: Antimalarial activity against trophozoite-induced Plasmodium gallinaceum infected in white leghorn chicken assessed as increase in mean survival days of host at 40 mg/kg, sc administered 72 hrs after infection relative to control; format: functional; details: route subcutaneous
[29] = system: Plasmodium gallinaceum; test: Antimalarial activity against trophozoite-induced Plasmodium gallinaceum infected in white leghorn chicken assessed as increase in mean survival days of host at 20 mg/kg, sc administered 72 hrs after infection relative to control; format: functional; details: route subcutaneous
[30] = system: Plasmodium gallinaceum; test: Antimalarial activity against trophozoite-induced Plasmodium gallinaceum infected in white leghorn chicken assessed as increase in mean survival days of host at 10 mg/kg, sc administered 72 hrs after infection relative to control; format: functional; details: route subcutaneous

Structure (SMILES)	MIC [1]	MIC [2]	MIC [3]	MIC [4]	MIC [5]	MIC [6]	MST [7]	MST [8]	MST [9]	MST [10]	Activity [12]	Activity [13]	Activity [14]	Activity [15]	Activity [16]	MST [21]	other results
Cc1c(Sc2ccc3ccccc3c2)ccc2nc(N)nc(N)c12	< 2.5 µg/mL	< 2.5 µg/mL	< 2.5 µg/mL	> 25 µg/mL	< 2.5 µg/mL	< 2.5 µg/mL	20.9 days	12.9 days	10.9 days	6.5 days	Active	Active	Active	Active	Active		MST [11]: 1.9 days; Activity [17]: Active
CN(Cc1ccc(Cl)c(Cl)c1)c1ccc2nc(N)nc(N)c2c1.Cl																	SD90 [18]: 0.16 mg/kg/day; Ratio [19]: 470
COc1cc(Cc2cnc(N)nc2N)cc(OC)c1OC [TRIMETHOPRIM]	< 0.25 µg/mL	< 0.25 µg/mL	< 0.25 µg/mL	> 25 µg/mL	< 0.25 µg/mL	< 0.25 µg/mL											MIC [20]: > 25 µg/mL; SD90 [18]: 120 mg/kg/day; Ratio [19]: 0.6
Nc1nc(N)c2cc(Sc3c(Cl)c(Cl)c(Cl)c(Cl)c3Cl)ccc2n1	1.5 µg/mL (≈ 3.4 µM)	10 µg/mL (≈ 22.7 µM)	20 µg/mL (≈ 45.4 µM)	> 25 µg/mL	> 25 µg/mL	> 25 µg/mL	10.7 days	6.6 days	2.7 days	2 days		Active	Active	Active	Active	18.1 days	
Cc1c(Sc2ccc(Cl)c(Cl)c2)ccc2nc(N)nc(N)c12							15.4 days	7.9 days	7.3 days	2.5 days	Active	Active	Active	Active	Active		MST [11]: 1.3 days; Activity [17]: Active
COc1cccc(Sc2ccc3nc(N)nc(N)c3c2)c1	< 0.25 µg/mL	< 0.25 µg/mL	< 0.25 µg/mL	> 25 µg/mL	< 0.25 µg/mL	1 µg/mL (≈ 3.35 µM)	1.5 days	0.3 days			Active	Active				5.7 days	MST [22]: 12.2 days; MST [23]: 11.7 days; MST [24]: 8.3 days
Nc1nc(N)c2cc(Sc3ccc(-c4ccccc4)cc3)ccc2n1							7.9 days	6.5 days	1.1 days			Active	Active	Active		12.1 days	MST [24]: 15.6 days
Nc1nc(N)c2cc(NCc3ccc(Cl)c(Cl)c3)ccc2n1																	MST [25]: 16.6 days; MST [26]: 15.3 days; MST [27]: 12.9 days; MST [28]: 12.1 days; MST [29]: 7 days; MST [30]: 2.2 days
